Measurements from patent EP1135374B9, “BENZIMIDAZOLE COMPOUNDS THAT ARE VITRONECTIN RECEPTOR ANTAGONISTS” (SCHERING CORPORATION, priority 1998, dated 2000).

Assays:
purified αllbβ3 receptor = purified αllbβ3 receptor (Homo sapiens, UniProt P05106+P08514); experiment: similar competitive binding assay with 125I-echistatin on αllbβ3 receptor, used for the specificity index; details: specificity index IC50 αllbβ3/ IC50 αvβ3; for Specificity αIIβ3 / αvβ3: Table 14; for SPECIFICITY αIIbβ3 / αvβ3: Table 15; for Specificity αllbβ3 / αvβ3: Table 16
Description: To measure the relative affinity of the test compounds for αvβ3 receptors versus affinity for αllbβ3 receptors, similar competitive assays were carried out using purified αllbβ3 receptor and ^125I-echistatin (iodinated using the lactoperoxidase method). The specificity index, which is a measure of the relative binding affinity for αvβ3, versus αllbβ3, may be determined by dividing the IC50 value for αllbβ3 by the IC50 value for αvβ3.

[1] = target: T1, αvβ3 receptor (purified from human placenta) (Homo sapiens, UniProt P05106+P06756); experiment: competition radioligand binding assay, 125I-echistatin to αvβ3 receptor; details: αvβ3, inhibition of specific 125I-echistatin binding
T1 construct: αvβ3 receptor (purified from human placenta); from tissue; host or cells: human placenta
Description: The following assay procedure, which is a competition radioligand binding assay, was carried out to determine the activity of the foregoing compounds as αvβ3 antagonists. The competitive assay procedure described in Kumar, et. al., "Biochemical Characterization Of The Binding Of Echistatin To Integrin αvβ3 Receptor", Journal Of Pharmacology And Experimental Therapeutics, Vol. 283, No. 2, pp. 843-853 (1997) was employed. Thus, binding of ^125I-echistatin (radiolabeled by the chloramine-T method to a specific activity of 2000 Ci/mmol (Amersham, Chicago, Il.)) to αvβ3 receptor (purified from human placenta), both prepared as described in Kumar, et al., was competed by the compounds prepared in the foregoing examples. Purified αvβ3 receptor was coated onto Microlite-2 plates at a concentration of 50 ng/well. ^125I-echistatin was added to the wells to a final concentration of 0.05 nM in binding buffer (50 µl/well) in the presence of the competing test compound. The competing test compounds were employed at serially diluted concentrations ranging from 1 pM to 100 nM. After a 3 hour incubation at room temperature, the wells were washed, and radioactivity, reflecting binding by ^125 I-echistatin to αvβ3 receptors, was determined with Top Count (Packard). Each data point is an average of values from triplicate wells.
Specific binding of ^125I-echistatin was calculated as the difference between the amount of ^125I-echistatin bound in the absence (total binding) and the amount of ^125I-echistatin bound in the presence of a 200-fold molar excess of unlabeled echistatin (nonspecific binding). The efficacy of the test compounds for inhibiting specific binding of ^125I-echistatin to αvβ3 receptors was determined by plotting a graph of specific binding (y-axis) as a function of test compound concentration (x-axis). The concentration of test compound required to inhibit 50% of the specific binding (IC50) was determined from the plot. The IC50 may be directly converted mathematically to Ki, which is a measure of the receptor binding affinity of the compounds under the defined assay conditions.

| Compound | Specificity αllbβ3 / αvβ3 (purified αllbβ3 receptor) | IC50 ([1]; Table 16) [nM] | also measured |
| --- | --- | --- | --- |
| O=C(NC(CNC(=O)c1ccc(CN(CCc2nc3ccccc3[nH]2)C(=O)CCc2ccccc2)cc1)C(=O)O)OCc1ccccc1 (centres unmarked) [Example 5-73] | – | – | Specificity αIIβ3 / αvβ3 (purified αllbβ3 receptor): 0.7; IC50 ([1]; Table 14): 170 nM |
| O=C(NC(CNC(=O)c1ccc(CN(CCc2nc3ccccc3[nH]2)C(=O)CCC2CCCC2)cc1)C(=O)O)OCc1ccccc1 (centres unmarked) [Example 5-74] | – | – | Specificity αIIβ3 / αvβ3 (purified αllbβ3 receptor): 0.6; IC50 ([1]; Table 14): 238 nM |
| CC(NCc1ccc(C(=O)NC[C@H](NC(=O)OCc2ccccc2)C(=O)O)cc1)c1nc2ccccc2[nH]1 (some centres unmarked) [Example 5-75] | – | – | SPECIFICITY αIIbβ3 / αvβ3 (purified αllbβ3 receptor): 10.2; IC50 ([1]; Table 15): 306 nM |
| CC(=O)N(Cc1ccc(C(=O)NC[C@H](NC(=O)OCc2ccccc2)C(=O)O)cc1)C(C)c1nc2ccccc2[nH]1 (some centres unmarked) [Example 5-76] | – | – | SPECIFICITY αIIbβ3 / αvβ3 (purified αllbβ3 receptor): 6.7; IC50 ([1]; Table 15): 50 nM |
| COCC(=O)N(Cc1ccc(C(=O)NC[C@H](NC(=O)OCc2ccccc2)C(=O)O)cc1)C(C)c1nc2ccccc2[nH]1 (some centres unmarked) [Example 5-77] | – | – | SPECIFICITY αIIbβ3 / αvβ3 (purified αllbβ3 receptor): 12.4; IC50 ([1]; Table 15): 49 nM |
| CC(c1nc2ccccc2[nH]1)N(Cc1ccc(C(=O)NC[C@H](NC(=O)OCc2ccccc2)C(=O)O)cc1)C(=O)CCc1ccccc1 (some centres unmarked) [Example 5-78] | – | – | SPECIFICITY αIIbβ3 / αvβ3 (purified αllbβ3 receptor): 33.9; IC50 ([1]; Table 15): 21 nM |
| CC(c1nc2ccccc2[nH]1)N(Cc1ccc(C(=O)NC[C@H](NC(=O)OCc2ccccc2)C(=O)O)cc1)C(=O)CCC1CCCC1 (some centres unmarked) [Example 5-79] | – | – | SPECIFICITY αIIbβ3 / αvβ3 (purified αllbβ3 receptor): 19.0; IC50 ([1]; Table 15): 33 nM |
| COCC(=O)N(Cc1ccc(C(=O)NC[C@H](NS(=O)(=O)c2ccccc2)C(=O)O)cc1)Cc1nc2ccccc2[nH]1 [Example 5-80] | 11 | 4.4 | – |
| O=C(NC[C@H](NS(=O)(=O)c1ccccc1)C(=O)O)c1ccc(CN(Cc2nc3ccccc3[nH]2)C(=O)NC2CCCCC2)cc1 [Example 5-81] | 8.0 | 8.2 | – |
| CCCCOC(=O)N[C@@H](CNC(=O)c1ccc(CN(Cc2nc3ccccc3[nH]2)C(=O)NC2CCCCC2)cc1)C(=O)O [Example 5-82] | 1259 | 2.2 | – |
| CCCCOC(=O)N[C@@H](CNC(=O)c1ccc(CN(Cc2nc3ccccc3[nH]2)C(=O)Nc2ccccc2)cc1)C(=O)O [Example 5-83] | 1689 | 1.8 | – |
| CCCCOC(=O)N[C@@H](CNC(=O)c1ccc(CN(Cc2nc3ccccc3[nH]2)C(=O)NC(C)C)cc1)C(=O)O [Example 5-84] | 712 | 3.6 | – |
| CCCCOC(=O)N[C@@H](CNC(=O)c1ccc(CN(Cc2nc3ccccc3[nH]2)C(=O)NC(C)(C)C)cc1)C(=O)O [Example 5-85] | 1223 | 1.8 | – |
| CCCCOC(=O)N[C@@H](CNC(=O)c1ccc(CN(Cc2nc3ccccc3[nH]2)C(=O)NCC(=O)OCC)cc1)C(=O)O [Example 5-86, N^3-[4-[(benzimidazol-2-yl)methyl][[(ethoxycarbonylmethyl)amino]-carbonyl]aminomethylbenzoyl]-N^2-(n-butoxycarbonyl)-L-2,3-diaminopropionic acid] | 793 | 3.3 | – |
| CCCCOC(=O)N[C@@H](CNC(=O)c1ccc(CN(Cc2nc3ccccc3[nH]2)C(=O)N[C@@H](CCSC)C(=O)OCC)cc1)C(=O)O [Example 5-87] | 1569 | 2 | – |
| CCCCOC(=O)N[C@@H](CNC(=O)c1ccc(CN(Cc2nc3ccccc3[nH]2)C(=O)Nc2ccc(F)cc2)cc1)C(=O)O [Example 5-88] | 1657 | 2 | – |
| CCCCOC(=O)N[C@@H](CNC(=O)c1ccc(CN(Cc2nc3ccccc3[nH]2)C(=O)N[C@@H](C)C(=O)OCC)cc1)C(=O)O [Example 5-89] | 1094 | 3.3 | – |
| CCCCOC(=O)N[C@@H](CNC(=O)c1ccc(CN(Cc2nc3ccccc3[nH]2)C(=O)N[C@H](C(=O)OCC)C(C)C)cc1)C(=O)O [Example 5-90] | 1697 | 2.6 | – |
| CCCCOC(=O)N[C@@H](CNC(=O)c1ccc(CN(Cc2nc3ccccc3[nH]2)C(=O)Nc2ccc(C(=O)OCC)cc2)cc1)C(=O)O [Example 5-91] | 1183 | 2.8 | – |
